The target of this assay is MDM2 (Homo sapiens, UniProt Q00987). As to the kind of experiment: MDM2 binding screen: displacement of fluorescent p53 peptide probe FP53 (fluorescence polarization). The note with it: for fraction fluorescent probe displaced, Screen: initial screen; for fraction fluorescent probe displaced, Screen / fraction fluorescent probe displaced, Replicate: crude macrocycle reactions. In short, it runs like this:
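Single-point screen: one fluorescence anisotropy reading at 25 °C (485 nm excitation, 535 nm emission) per macrocycle. Crude macrocycle reactions, final 10 µM, were scored for displacing the fluorescent p53 peptide from human MDM2.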
(In general: In fluorescence polarisation assays a small probe gives low polarisation when free and higher when bound to something large.)

Molecules are shown by their SMILES. Numbered stars: 1 amine (or outer) side, 2 acyl side, 3 side chain; on linkers, the order of the positions; unused ones are H or OH. Bridge positions count the residues as written; N and C are the ends. Square brackets hold non-standard residues; d marks the D form. Peptide text beside a SMILES is read from it. * marks the point of attachment. 2Thenoyl(5-Cl) = O=C(c1ccc(Cl)s1)*; Benzoyl(4-Cl) = O=C(c1ccc(Cl)cc1)*; Cysteamide = C(CS[*:3])N[*:1]; X1 = O=C(/C=C/c1ccccc1)*; Api = NC1(C(=O)O)CCNCC1; Mpa = O=C(O)CCS

MDM2, sequence (Q00987 whole entry): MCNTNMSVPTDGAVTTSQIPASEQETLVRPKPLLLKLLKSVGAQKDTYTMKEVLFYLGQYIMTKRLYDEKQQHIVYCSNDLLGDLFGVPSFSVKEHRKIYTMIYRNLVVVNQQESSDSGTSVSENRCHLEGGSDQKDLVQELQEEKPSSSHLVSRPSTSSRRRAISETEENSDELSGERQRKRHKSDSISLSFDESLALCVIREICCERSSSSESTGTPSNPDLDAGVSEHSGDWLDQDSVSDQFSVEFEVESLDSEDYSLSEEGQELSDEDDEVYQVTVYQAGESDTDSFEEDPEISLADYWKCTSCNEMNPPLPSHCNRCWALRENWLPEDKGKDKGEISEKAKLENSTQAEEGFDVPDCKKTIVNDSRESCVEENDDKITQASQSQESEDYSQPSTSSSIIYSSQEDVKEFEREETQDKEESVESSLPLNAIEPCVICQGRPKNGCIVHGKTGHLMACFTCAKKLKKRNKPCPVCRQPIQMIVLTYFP

In the case of `O=C1CCSSCCNC(=O)[C@H](Cc2ccccc2)NC(=O)[C@@H]2CCCN2C(=O)C2(CCN(C(=O)c3ccc(Cl)cc3)CC2)N1` [X D6 B1 F Acid 25] ([Mpa][Api](Benzoyl(4-Cl))PF-Cysteamide; disulfide 1-C), the “fraction fluorescent probe displaced, Screen” value (Acid 25) is 0.0569. Besides, the “fraction fluorescent probe displaced, Replicate” value (Acid 25, replicate) was determined as 0.07.

As to `O=C1CCSSCCNC(=O)[C@H](Cc2ccccc2)NC(=O)[C@@H]2CCCN2C(=O)C2(CCN(C(=O)/C=C/c3ccccc3)CC2)N1` [X D6 B1 F Acid 91] ([Mpa][Api](X1)PF-Cysteamide; disulfide 1-C), the “fraction fluorescent probe displaced, Screen” value (Acid 91) is given as -0.08. Besides, the “fraction fluorescent probe displaced, Replicate” value (Acid 91, replicate) was -0.11.

With `O=C1CCSSCCNC(=O)[C@H](Cc2c[nH]c3ccccc23)NC(=O)[C@@H]2CCCN2C(=O)C2(CCN(C(=O)c3ccc(Cl)s3)CC2)N1` [X D6 B1 W Acid 14] ([Mpa][Api](2Thenoyl(5-Cl))PW-Cysteamide; disulfide 1-C), for the setting “Acid 14”, the “fraction fluorescent probe displaced, Screen” value came out at 0.08. In addition, the “fraction fluorescent probe displaced, Replicate” value (Acid 14, replicate) amounted to 0.07.

Regarding `O=C1CCSSCCNC(=O)[C@H](Cc2c[nH]c3ccccc23)NC(=O)[C@@H]2CCCN2C(=O)C2(CCN(C(=O)/C=C/c3ccccc3)CC2)N1` [X D6 B1 W Acid 91] ([Mpa][Api](X1)PW-Cysteamide; disulfide 1-C), the “fraction fluorescent probe displaced, Screen” value (Acid 91) was -0.05. For the same molecule, for the setting “Acid 91, replicate”, the “fraction fluorescent probe displaced, Replicate” value came out at 0.04.

Regarding `O=C1CCNC(=O)C2(CCN(C(=O)c3ccc(Cl)s3)CC2)NC(=O)CCSSCCNC(=O)[C@H](Cc2ccccc2)N1` [X D6 B2 F Acid 14], the “fraction fluorescent probe displaced, Screen” value (Acid 14) was determined as 0.08. In addition, for the setting “Acid 14, replicate”, the “fraction fluorescent probe displaced, Replicate” value is listed as 0.0465.

Regarding `O=C1CCNC(=O)C2(CCN(C(=O)c3ccc(Cl)cc3)CC2)NC(=O)CCSSCCNC(=O)[C@H](Cc2ccccc2)N1` [X D6 B2 F Acid 25], for the setting “Acid 25”, the “fraction fluorescent probe displaced, Screen” value stood at 0.0244. Moreover, under “Acid 25, replicate”, the “fraction fluorescent probe displaced, Replicate” value is reported as 0.0211.

Consider `O=C1CCNC(=O)C2(CCN(C(=O)/C=C/c3ccccc3)CC2)NC(=O)CCSSCCNC(=O)[C@H](Cc2ccccc2)N1` [X D6 B2 F Acid 91], for which the “fraction fluorescent probe displaced, Screen” value (Acid 91) is -0.0241. Besides, under “Acid 91, replicate”, the “fraction fluorescent probe displaced, Replicate” value was -0.00827.

As for `O=C1CCNC(=O)C2(CCN(C(=O)c3ccc(Cl)s3)CC2)NC(=O)CCSSCCNC(=O)[C@H](Cc2c[nH]c3ccccc23)N1` [X D6 B2 W Acid 14], under “Acid 14”, the “fraction fluorescent probe displaced, Screen” value is 0.17. For the same molecule, under “Acid 14, replicate”, the “fraction fluorescent probe displaced, Replicate” value worked out at 0.20.

On to `O=C1CCNC(=O)C2(CCN(C(=O)/C=C/c3ccccc3)CC2)NC(=O)CCSSCCNC(=O)[C@H](Cc2c[nH]c3ccccc23)N1` [X D6 B2 W Acid 91], for which the “fraction fluorescent probe displaced, Screen” value (Acid 91) was found to be 0.19. Moreover, the “fraction fluorescent probe displaced, Replicate” value (Acid 91, replicate) was determined as 0.09.

In the case of `O=C1CCSSCCNC(=O)[C@H](Cc2ccccc2)NC(=O)[C@H]2CCCN(C2)C(=O)C2(CCN(C(=O)c3ccc(Cl)s3)CC2)N1` [X D6 B4 F + Acid 14], the “fraction fluorescent probe displaced” value reads like this: (crude reaction of macrocycle scaffold with Acid 14, (initial screen)) -0.00483; (crude reaction of macrocycle scaffold with Acid 14, replicate) 0.10.

Consider `O=C1CCSSCCNC(=O)[C@H](Cc2ccccc2)NC(=O)[C@H]2CCCN(C2)C(=O)C2(CCN(C(=O)c3ccc(Cl)cc3)CC2)N1` [X D6 B4 F + Acid 25], for which the “fraction fluorescent probe displaced” value by setting is: (crude reaction of macrocycle scaffold with Acid 25, (initial screen)) 0.09; (crude reaction of macrocycle scaffold with Acid 25, replicate) 0.15.

`O=C1CCSSCCNC(=O)[C@H](Cc2c[nH]c3ccccc23)NC(=O)[C@H]2CCCN(C2)C(=O)C2(CCN(C(=O)c3ccc(Cl)s3)CC2)N1` [X D6 B4 W Acid 14]: for the setting “Acid 14”, the “fraction fluorescent probe displaced, Screen” value is on record as 0.17. Further, the “fraction fluorescent probe displaced, Replicate” value (Acid 14, replicate) was 0.25.

Consider `O=C1CCSSCCNC(=O)C(Cc2c[nH]c3ccccc23)NC(=O)C2CCCN(C2)C(=O)C2(CCN(C(=O)C=Cc3ccccc3)CC2)N1` (stereo not shown) [X D6 B4 W Acid 91], for which, under “Acid 91”, the “fraction fluorescent probe displaced, Screen” value came to 0.11. In addition, the “fraction fluorescent probe displaced, Replicate” value (Acid 91, replicate) is given as 0.0168.

`O=C1CCSSCCNC(=O)[C@H](Cc2ccccc2)NC(=O)c2cccc(c2)CNC(=O)C2(CCN(C(=O)/C=C/c3ccccc3)CC2)N1` [X D6 B5 F Acid 91]: the “fraction fluorescent probe displaced, Screen” value (Acid 91) was -0.05. For the same molecule, the “fraction fluorescent probe displaced, Replicate” value (Acid 91, replicate) is -0.0333.

On to `O=C1CCSSCCNC(=O)C(Cc2c[nH]c3ccccc23)NC(=O)c2cccc(c2)CNC(=O)C2(CCN(C(=O)c3ccc(Cl)s3)CC2)N1` (stereo not shown) [X D6 B5 W Acid 14], for which, under “Acid 14”, the “fraction fluorescent probe displaced, Screen” value is recorded as 0.23. Besides, the “fraction fluorescent probe displaced, Replicate” value (Acid 14, replicate) was 0.25.

For `O=C1CCSSCCNC(=O)[C@H](Cc2c[nH]c3ccccc23)NC(=O)c2cccc(c2)CNC(=O)C2(CCN(C(=O)c3ccc(Cl)cc3)CC2)N1` [X D6 B5 W Acid 25], the “fraction fluorescent probe displaced, Screen” value (Acid 25) was found to be 0.25. Besides, under “Acid 25, replicate”, the “fraction fluorescent probe displaced, Replicate” value was found to be 0.22.

As to `O=C1CCSSCCNC(=O)[C@@H]2CCCN2C(=O)[C@H](Cc2ccccc2)NC(=O)C2(CCN(C(=O)c3ccc(Cl)s3)CC2)N1` [X D6 F B1 Acid 14] ([Mpa][Api](2Thenoyl(5-Cl))FP-Cysteamide; disulfide 1-C), the “fraction fluorescent probe displaced, Screen” value (Acid 14) stood at 0.053. Moreover, the “fraction fluorescent probe displaced, Replicate” value (Acid 14, replicate) was 0.07.

Take `O=C1CCSSCCNC(=O)[C@@H]2CCCN2C(=O)[C@H](Cc2ccccc2)NC(=O)C2(CCN(C(=O)c3ccc(Cl)cc3)CC2)N1` [X D6 F B1 Acid 25] ([Mpa][Api](Benzoyl(4-Cl))FP-Cysteamide; disulfide 1-C): the “fraction fluorescent probe displaced, Screen” value (Acid 25) came out at 0.15. Besides, the “fraction fluorescent probe displaced, Replicate” value (Acid 25, replicate) is listed as 0.22.

Turning to `O=C1CCSSCCNC(=O)[C@@H]2CCCN2C(=O)[C@H](Cc2ccccc2)NC(=O)C2(CCN(C(=O)/C=C/c3ccccc3)CC2)N1` [X D6 F B1 Acid 91] ([Mpa][Api](X1)FP-Cysteamide; disulfide 1-C), for the setting “Acid 91”, the “fraction fluorescent probe displaced, Screen” value is reported as -0.05. The “fraction fluorescent probe displaced, Replicate” value (Acid 91, replicate) is listed as -0.08.

Regarding `O=C1CCNC(=O)[C@H](Cc2ccccc2)NC(=O)C2(CCN(C(=O)c3ccc(Cl)s3)CC2)NC(=O)CCSSCCN1` [X D6 F B2 Acid 14], the “fraction fluorescent probe displaced, Screen” value (Acid 14) came out at 0.0241. The “fraction fluorescent probe displaced, Replicate” value (Acid 14, replicate) is recorded as 0.07.

As for `O=C1CCNC(=O)[C@H](Cc2ccccc2)NC(=O)C2(CCN(C(=O)/C=C/c3ccccc3)CC2)NC(=O)CCSSCCN1` [X D6 F B2 Acid 91], for the setting “Acid 91”, the “fraction fluorescent probe displaced, Screen” value turned out to be 0.14. Also, the “fraction fluorescent probe displaced, Replicate” value (Acid 91, replicate) was determined as 0.04.

Take `O=C1CCSSCCNC(=O)[C@H]2CCCN(C2)C(=O)[C@H](Cc2ccccc2)NC(=O)C2(CCN(C(=O)/C=C/c3ccccc3)CC2)N1` [X D6 F B4 + Acid 91]: the “fraction fluorescent probe displaced” value (crude reaction of macrocycle scaffold with Acid 91, (initial screen)) amounted to 0.03 and the “fraction fluorescent probe displaced” value (crude reaction of macrocycle scaffold with Acid 91, replicate) is reported as -0.00827.

Regarding `O=C1CCSSCCNC(=O)c2cccc(c2)CNC(=O)[C@H](Cc2ccccc2)NC(=O)C2(CCN(C(=O)c3ccc(Cl)s3)CC2)N1` [X D6 F B5 Acid 14], the “fraction fluorescent probe displaced, Screen” value (Acid 14) is on record as -0.0337. The “fraction fluorescent probe displaced, Replicate” value (Acid 14, replicate) is 0.12.

For the molecule `O=C1CCSSCCNC(=O)c2cccc(c2)CNC(=O)C(Cc2ccccc2)NC(=O)C2(CCN(C(=O)C=Cc3ccccc3)CC2)N1` (stereo not shown) [X D6 F B5 Acid 91], the “fraction fluorescent probe displaced, Screen” value (Acid 91) is -0.05. Besides, the “fraction fluorescent probe displaced, Replicate” value (Acid 91, replicate) is given as -0.00827.

Regarding `O=C1CCSSCCNC(=O)[C@@H]2CCCN2C(=O)[C@H](Cc2c[nH]c3ccccc23)NC(=O)C2(CCN(C(=O)c3ccc(Cl)s3)CC2)N1` [X D6 W B1 Acid 14] ([Mpa][Api](2Thenoyl(5-Cl))WP-Cysteamide; disulfide 1-C), the “fraction fluorescent probe displaced, Screen” value (Acid 14) is given as 0.11. The “fraction fluorescent probe displaced, Replicate” value (Acid 14, replicate) is given as 0.07.

With `O=C1CCSSCCNC(=O)[C@@H]2CCCN2C(=O)[C@H](Cc2c[nH]c3ccccc23)NC(=O)C2(CCN(C(=O)c3ccc(Cl)cc3)CC2)N1` [X D6 W B1 Acid 25] ([Mpa][Api](Benzoyl(4-Cl))WP-Cysteamide; disulfide 1-C), the “fraction fluorescent probe displaced, Screen” value (Acid 25) is given as 0.25. For the same molecule, where the note is “Acid 25, replicate”, the “fraction fluorescent probe displaced, Replicate” value was 0.20.

Take `O=C1CCSSCCNC(=O)[C@@H]2CCCN2C(=O)[C@H](Cc2c[nH]c3ccccc23)NC(=O)C2(CCN(C(=O)/C=C/c3ccccc3)CC2)N1` [X D6 W B1 Acid 91] ([Mpa][Api](X1)WP-Cysteamide; disulfide 1-C): for the setting “Acid 91”, the “fraction fluorescent probe displaced, Screen” value came out at 0.08. In addition, under “Acid 91, replicate”, the “fraction fluorescent probe displaced, Replicate” value is on record as 0.04.

Consider `O=C1CCNC(=O)[C@H](Cc2c[nH]c3ccccc23)NC(=O)C2(CCN(C(=O)c3ccc(Cl)cc3)CC2)NC(=O)CCSSCCN1` [X D6 W B2 Acid 25], for which the “fraction fluorescent probe displaced, Screen” value (Acid 25) stood at 0.09. In addition, the “fraction fluorescent probe displaced, Replicate” value (Acid 25, replicate) is given as 0.10.

Turning to `O=C1CCNC(=O)[C@H](Cc2c[nH]c3ccccc23)NC(=O)C2(CCN(C(=O)/C=C/c3ccccc3)CC2)NC(=O)CCSSCCN1` [X D6 W B2 Acid 91], the “fraction fluorescent probe displaced, Screen” value (Acid 91) came to 0.14. The “fraction fluorescent probe displaced, Replicate” value (Acid 91, replicate) turned out to be 0.07.

As for `O=C1CCSSCCNC(=O)[C@H]2CCCN(C2)C(=O)[C@H](Cc2c[nH]c3ccccc23)NC(=O)C2(CCN(C(=O)c3ccc(Cl)cc3)CC2)N1` [X D6 W B4 Acid 25], under “Acid 25”, the “fraction fluorescent probe displaced, Screen” value is 0.28. The “fraction fluorescent probe displaced, Replicate” value (Acid 25, replicate) came out at 0.22.

Regarding `O=C1CCSSCCNC(=O)[C@H]2CCCN(C2)C(=O)[C@H](Cc2c[nH]c3ccccc23)NC(=O)C2(CCN(C(=O)/C=C/c3ccccc3)CC2)N1` [X D6 W B4 Acid 91], the “fraction fluorescent probe displaced, Screen” value (Acid 91) came out at 0.14. Besides, the “fraction fluorescent probe displaced, Replicate” value (Acid 91, replicate) is listed as 0.07.

Consider `O=C1CCSSCCNC(=O)c2cccc(c2)CNC(=O)C(Cc2c[nH]c3ccccc23)NC(=O)C2(CCN(C(=O)c3ccc(Cl)s3)CC2)N1` (stereo not shown) [X D6 W B5 Acid 14], for which the “fraction fluorescent probe displaced, Screen” value (Acid 14) was determined as 0.11. Also, the “fraction fluorescent probe displaced, Replicate” value (Acid 14, replicate) amounted to 0.25.

These data come from paper PMC9250534, “Synthesis and direct assay of large macrocycle diversities by combinatorial late-stage modification at picomole scale” (Nature Communications, 2022).
